Experimental data published in patent US9394338B2, “Glutathione analogs and uses thereof” (REGENTS OF THE UNIVERSITY OF MINNESOTA, priority 2011, dated 2016).

Columns and labels:
APP/PS1 mice [1] = assay: Brain ROS assay (DCFH-DA); assay type: in vivo
Description: (§1) Efficacy Study Design. To determine the effect of intraperitoneal and oral Ψ-GSH treatment, the study was divided in four groups (10 mice/group). 1. APP/PS1 mice-vehicle control, 2. APP/PS1 mice-Ψ-GSH i.p. 500 mg/kg, 3. APP/PS1 mice-Ψ-GSH oral 500 mg/kg, 4. Non-transgenic wild type mice-vehicle control. All the animals in the above-said groups were treated with saline or Ψ-GSH three times a week for 12 weeks, starting at the age of three to four months. Eleven weeks after the start of the treatment, the animals were tested in the Morris water maze, and twelve weeks after the start of the treatment, the animals were sacrificed for histopathological analysis.
ROS Assay. ROS levels were quantified via the 2′-7′-dichlorofluorescein-diacetate (DCFH-DA) assay. […] The reaction was then stopped by placing it on ice and the formation of oxidized fluorescent 2′-7′-dichlorofluorescein (DCF) was measured with a fluorescence plate reader (BioTek SynergyHT, VT, USA) using excitation and emission wavelengths at 488 and 525 nm, respectively. The final results were corrected for protein concentration and then expressed as percentage of the corresponding values in saline treated wild-type mice. All steps were performed in the dark and DCF formation was also monitored immediately after DCFH-DA was added to the homogenate (t=0 min) in order to subtract background autofluorescence.

APP/PS1 mice [2] = assay: Morris water maze; assay type: in vivo; conditions: for escape latency, hidden platform: 500 mg/Kg i.p. 3×/week
Description: as §1
Behavior Study. Eleven weeks after the beginning of the treatment, the animals were tested for one week in an open field water maze. The maze consists of a white circular tank (120 cm diameter) of water (23±1° C.) rendered opaque with nontoxic crayola paint. The mice were placed in the water at the edge of the pool and allowed to swim in order to locate a hidden, but fixed escape platform, using extra-maze cues.
On Day 1, the mice were be placed in the pool and allowed to swim freely for 60 s. If an animal could not locate the hidden platform within that time, it was placed manually upon the platform and left there for 10 s. Each animal was tested in four trials per day. The inter-trial interval was 15 min. Each start position was used equally in a pseudorandom order, and the animals were always placed in the water facing the wall. The platform was placed in the middle of northeast quadrant of the pool (approximately 30 cm from the side of the pool). The mouse's task throughout the experiment was to find and climb onto the platform, escaping the water. Once the mouse learned the task (Day 4, Trial 16), a probe trial was conducted 24 hours after the last trial of acquisition on Day 4.
In the probe trial (i.e., Trial 17, day 5), the platform was removed from the pool and animals were allowed to swim for 60 s. Their ability to remember the location of the previously present escape platform was quantified in proportion to the residence time of the mouse in the quadrant previously containing the platform. Immediately following the probe trial, visible platform was reintroduced at a different location (i.e southeast quadrant) along with a visible flag. Mice were trained to locate this cued platform in 4 trials conducted in the aforementioned manner.

GSH uptake transporters = assay: Inhibition of [3H]-GSH uptake; assay type: cell-based, human; conditions: 100 nM [3H]-GSH; 1 μM, 100 nM and 10 nM compound
Description: Inhibition of Glutathione Uptake by Ψ-GS. The uptake experiment was performed under conditions described previously. Briefly, the cells were seeded in 24-well plates. After an overnight incubation, the cells were treated with 100 nM concentration of [^3H]-GSH in uptake buffer (128 mM NaCl, 4.73 mM KCl, 1.25 mM CaCl2, 1.25 mM MgSO4, and 5 mM HEPES, pH =7.4) in the presence or absence of Ψ-GSH at concentrations of 10, 100 and 1000 nM at 37° C. under 5% CO2 for 30 min. At the end of incubation, the cellular uptake was terminated by washing three times with ice-cold PBS. Any remaining buffer was aspirated, and the cells were lysed with 1 ml of warm 0.1% SDS/0.1 N NaOH solution for a minimum of 45 min. Intracellular levels of radioactive GSH were determined using liquid scintillation counting. All resulting levels of GSH uptake were normalized to the total protein in each well using a BCA protein assay. All uptake experiments were performed in triplicate and statistically significant differences in uptake were evaluated using Graphpad Prism 5.1 (Graphpad, La Jolla, Calif.) using a one-way ANOVA followed by a Dunnett's post hoc test with a false discovery rate of 0.05.

Q: With `N[C@@H](CNC(=O)N[C@@H](CS)C(=O)NCC(=O)O)C(=O)O` [Ψ-GSH, γ-Gla-Cys-Gly-OH] as the molecule, how does the “total brain ROS levels, increase over WT mice” value (APP/PS1 mice [1]; i.p.) read?
A: 6%

Q: What about the “levels of ROS” value (APP/PS1 mice [1]; oral) of the same molecule?
A: unaffected

Q: And the “escape latency, hidden platform” value (APP/PS1 mice [2]; APP-PS1 mice, day 3 of training)?
A: 17.91 ± 4.65 s

Q: And the “escape latency, hidden platform” value (APP/PS1 mice [2]; APP-PS1 mice, day 4 of training)?
A: 14.64 ± 2.61 s

Q: And the “time in the target quadrant, probe trial” value (APP/PS1 mice [2]; APP-PS1 mice, i.p., 24 h after training)?
A: 38.43±3.73%

Q: And the path length (APP/PS1 mice [2]; APP-PS1 mice, i.p., last day of training)?
A: 2.69±0.47 m

Q: And the “Path lengths vs saline-treated controls” value (APP/PS1 mice [2]; APP-PS1 mice, oral)?
A: insignificantly different

Q: And the “escape latency, visible platform” value (APP/PS1 mice [2]; APP/PS1 mice, i.p., end of four trials)?
A: 6.75 ± 1.49 s

Q: And the “time in the target quadrant, probe trial” value (APP/PS1 mice [2]; APP/PS1 mice, oral)?
A: 21.76±5.36%

Q: What about the “spatial memory development and escape latencies vs saline-treated group” value (APP/PS1 mice [2]; APP/PS1 mice, oral 3×/week for 3 months, significant (p<0.05) on day 2 only) of the same molecule?
A: Trends toward higher spatial memory development and lower escape latencies

Q: What about the “[3H]-GSH uptake by SH-SY-5Y cells” value (GSH uptake transporters) of the same molecule?
A: inhibited in a dose-dependent manner
